Assay in all cases: NCI tumour cell line growth inhibition, 48 h
Experiment [1] concerns SF-539 CNS.
For experiment [2], the system named is OVCAR-8 ovarian.
In experiment [3] the test system is HCT-15 colon.
Experiment [4] relates to TK-10 renal.
Experiment [5] deals with SNB-19 CNS.
In experiment [6] the test system is SNB-75 CNS.
Experiment [7] deals with UO-31 renal.
The subject of experiment [8] is EKVX NSCLC.
The test system of experiment [9] is KM12 colon.
The subject of experiment [10] is OVCAR-5 ovarian.

Values joined by “and” are separate entries in the source; they are usually repeats but may differ in a detail not shown here. Identical values can stand only once.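 Test compounds were applied to cells in 96-well plates for 48 hours at 5 doses. At the GI50, growth is halved. TGI is the concentration that stops growth completely.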

Turning to `COc1ccc2c3c(n(Cc4ccccc4)c(=O)c2c1)-c1cc(OC)c(OC)cc1C3C` (centres undefined), the TGI in [1] was 24.4 µM; in experiment [2] it was more than 100 µM; in experiment [3], more than 100 µM; in [4] it was more than 100 µM; in experiment [5] it was more than 84.9 µM; in experiment [6], 45.4 µM. Moreover, the TGI is more than 100 µM in experiment [7], 52.8 µM in experiment [8], more than 100 µM in experiment [9] and more than 100 µM in experiment [10].

As to `O=P(NC12CC3CC(CC(C3)C1)C2)(N1CC1)N1CC1`, the TGI in experiment [1] was 75.5 µM; in [2], more than 100 µM; in experiment [3], more than 100 µM; in experiment [4], more than 100 µM; in [5], more than 100 µM; in experiment [6] it was more than 100 µM. In addition, the TGI in [7], in experiment [8], in [9] and in [10] was more than 100 µM in each case.

For `CN(C)c1ncnc2c1nnn2C1OC(CO)C(O)C1O` (centres undefined), the GI50 was 0.503 µM in [1]; 0.0759 µM in [2]; 0.229 µM in experiment [3]; 0.25 µM in experiment [4]; 1.06 µM in [5]; 0.106 µM in experiment [6]. Moreover, the GI50 in experiment [7] is 0.4 µM; in [8] it was 2.33 µM; in [9] it was 1.07 µM; in experiment [10], 2.97 µM. The TGI in experiment [1] was more than 90.6 µM; in [2], more than 100 µM; in experiment [3], more than 100 µM; in experiment [4] it was more than 100 µM; in experiment [5], more than 100 µM; in experiment [6], more than 100 µM. Also, the TGI in experiment [7] was more than 100 µM; in [8] it was more than 100 µM; in experiment [9] it was 32.8 µM; in experiment [10] it was more than 100 µM.

For `Cc1cc(C2=NNC(=O)Cc3cc4c(cc32)OCCO4)cc(C)c1N`, the GI50 is 2.73 µM in experiment [1]; 4.08 µM in experiment [2]; 1.25 µM in experiment [3]; 8.96 µM in [4]; 4.31 µM in [5]; 1.25 µM in experiment [6]. Besides, the GI50 in experiment [7] was 3.83 µM; in [8] it was 29.7 µM; in experiment [9] it was 0.818 µM; in experiment [10] it was 8.02 µM. Further, the TGI is 8.91 µM in experiment [1]; more than 100 µM in [2]; more than 100 µM in [3]; more than 100 µM in experiment [4]; more than 100 µM in experiment [5]; 4.32 µM in experiment [6]. For the same molecule, the TGI in [7], in [8], in experiment [9] and in [10] was more than 100 µM each time.

As for `CN(N=O)C(=O)N[C@@H](C=O)[C@@H](O)[C@H](O)[C@H](O)CO`, the GI50 in [1] was more than 750 µM; in [2] it was more than 750 µM; in experiment [3] it was more than 750 µM; in experiment [5] it was more than 750 µM; in experiment [6] it was 696 µM; in experiment [7], more than 750 µM. The GI50 in experiment [8], in [9] and in experiment [10] was more than 750 µM in each case. Also, the TGI in experiment [1] was more than 750 µM; in experiment [2], more than 750 µM; in experiment [3], 666 µM and > 750 µM; in experiment [4], more than 750 µM; in experiment [5] it was more than 750 µM; in experiment [6], more than 750 µM. Moreover, the TGI in experiment [7], in experiment [8], in experiment [9] and in experiment [10] was more than 750 µM each time.

Consider `COc1ccc(C2=NN(C(=O)c3cc(OC)c(OC)c(OC)c3)C(c3ccc(Cl)cc3)C2)cc1OC` (centres undefined), for which the GI50 in [1] is 2.06 µM; in [2], 4.63 µM; in [3], 1.79 µM; in experiment [4], 3.63 µM; in [5] it was 4.15 µM; in [6] it was 0.746 µM. Moreover, the GI50 was 1.11 µM in experiment [7], 5.86 µM in experiment [8], 1.77 µM in experiment [9] and 76.5 µM in experiment [10]. The TGI was more than 82.8 µM in experiment [1]; more than 58.6 µM in experiment [2]; more than 100 µM in experiment [3]; more than 81.6 µM in experiment [4]; 44 µM in [5]; 15.2 µM in experiment [6]. Moreover, the TGI in experiment [7] is 41.8 µM; in [8], more than 100 µM; in [9], more than 100 µM; in experiment [10] it was more than 100 µM.

In the case of `CC1(C)CCc2cc3c(cc2O1)OCC1c2cc4c(cc2OC31)OCO4` (centres undefined), the TGI in experiment [1], in experiment [2], in experiment [3], in [4], in [5] and in [6] was more than 100 µM throughout. The TGI in experiment [7], in experiment [8], in experiment [9] and in experiment [10] was more than 100 µM each time.

Regarding `COc1ccc(C(=O)C(C(=O)C(=O)Nc2ccc(Cl)c(Cl)c2)c2ccc(OC)cc2)cc1` (centres undefined), the TGI in [1], in experiment [2], in experiment [3], in experiment [4], in [5] and in experiment [6] was more than 100 µM each time. Besides, the TGI in experiment [7], in experiment [8], in experiment [9] and in experiment [10] was more than 100 µM each time.

Regarding `COc1cc2nccc(Oc3ccc(NC(=O)C4(C(=O)Nc5ccc(F)cc5)CC4)cc3)c2cc1Oc1ccc(N)cn1`, the GI50 was 0.854 µM in [1]; 3.77 µM in [2]; 3.04 µM in [3]; 3.65 µM in experiment [4]; 4.49 µM in [5]; 1.41 µM in experiment [6]. In addition, the GI50 in [7] was 2.36 µM; in [8] it was 3.21 µM; in experiment [9], 0.0442 µM; in [10], 2.49 µM. The TGI was 4.84 µM in [1]; more than 100 µM in experiment [2]; more than 100 µM in [3]; more than 100 µM in experiment [4]; more than 100 µM in [5]; 4.21 µM in experiment [6]. For the same molecule, the TGI is 9.32 µM in [7], more than 100 µM in experiment [8], 3.1 µM in [9] and 39 µM in experiment [10].

Turning to `CCOC(=O)c1c2c(n(Cc3ccccc3)c1C)-c1ccccc1C(=O)C2=O`, the GI50 in experiment [1] was 18.7 µM; in [2], 14.9 µM; in [3] it was 15.3 µM; in [4], 16.3 µM; in experiment [5], 15.4 µM; in [6], 10.7 µM. In addition, the GI50 was 16.3 µM in experiment [7], 11.9 µM in [8], 19.8 µM in experiment [9] and 15.5 µM in [10]. Also, the TGI in experiment [1] was 34.4 µM; in experiment [2], 43.7 µM; in experiment [3], 30.8 µM; in experiment [4], 34.6 µM; in [5] it was 29.4 µM; in [6], 24.7 µM. For the same molecule, the TGI in [7] turned out to be 31.6 µM; in experiment [8] it was 29.2 µM; in [9] it was 65.3 µM; in experiment [10], 40.4 µM.

For `O=c1c2ccccc2n2n1CC(O)C2` (centres undefined), the TGI in [1], in experiment [2], in experiment [3], in [4], in experiment [5] and in experiment [6] was more than 100 µM each time. Besides, the TGI in [7], in [8], in experiment [9] and in experiment [10] was more than 100 µM each time.

For the origin of these results see PubChem BioAssay (NCI).
